Measured values reported in patent US7538131B2, “2-{-3-′2-(phenyl)-oxazol-4-ylmethoxymethyl-cyclohexylmethoxy}-propionic acid derivatives useful as peroxisome proliferator-activated receptor (PPAR) ligands for the treatment of hyperlipidemia and diabetes” (Sanofi-Aventis Deutschland GmbH, priority 2004, dated 2009).

Experiments:
human PPARgamma = molecular target: T1, human PPARgamma (Homo sapiens, UniProt P37231); experiment: Cellular PPARgamma assay (transiently transfected HEK cells, luciferase reporter); assay type: cell-based; conditions: GAL4-humanPPARgammaLBD, firefly/Renilla luciferase ratio, 48 h
T1 construct: human PPARgamma receptor (amino acids 1152-Y475); expressed in transfected cells; host or cells: HEK cells (transiently transfected, pcDNA3-GAL4-humanPPARgammaLBD)
T1 sequence (P37231 182-477 isoform P37231-2 limits assumed): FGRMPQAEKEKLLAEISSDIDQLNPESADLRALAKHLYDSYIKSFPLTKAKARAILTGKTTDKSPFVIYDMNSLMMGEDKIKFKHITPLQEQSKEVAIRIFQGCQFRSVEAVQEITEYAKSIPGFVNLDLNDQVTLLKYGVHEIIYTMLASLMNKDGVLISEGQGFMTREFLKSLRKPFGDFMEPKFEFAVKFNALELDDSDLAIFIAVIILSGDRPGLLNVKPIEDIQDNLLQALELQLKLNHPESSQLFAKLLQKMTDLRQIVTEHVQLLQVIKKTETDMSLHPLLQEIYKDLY
Source text: 4) Determination of EC50 Values of PPAR Agonists in the Cellular PPARgamma Assay
A transient transfection system is employed to determine the cellular PPARgamma activity of PPAR agonists. It is based on the use of a luciferase reporter plasmid (pGL3basic-5xGAL4-TK) and of a PPARgamma expression plasmid (pcDNA3-GAL4-humanPPARgammaLBD). Both plasmids are transiently transfected into human embryonic kidney cells (HEK cells). There is then expression in these cells of the fusion protein GAL4-humanPPARgammaLBD which binds to the GAL4 binding sites of the reporter plasmid. In the presence of a PPARgamma-active ligand, the activated fusion protein GAL4-humanPPARgammaLBD induces expression of the luciferase reporter gene, which can be detected in the form of a chemiluminescence signal after addition of a luciferase substrate. As a difference from the stably transfected PPARalpha reporter cell line, in the cellular PPARgamma assay the two components (luciferase reporter plasmid and PPARgamma expression plasmid) are transiently transfected into HEK cells because stable and permanent expression of the PPARgamma fusion protein is cytotoxic.
The luciferase reporter plasmid pGL3basic-5xGAL4-TK is based on the vector pGL3basic from Promega. The reporter plasmid is prepared by cloning five binding sites of the yeast transcription factor GAL4 (each binding site with the sequence 5′-CTCGGAGGACAGTACTCCG-3′), together with a 160 bp-long thymidine kinase promoter section (Genbank Accession #AF027128) 5′-upstream into pGL3basic. 3′-downstream of the thymidine kinase promoter is the complete luciferase gene from Photinus pyralis (Genbank Accession # Ml 5077), which is already a constituent of the plasmid pGL3basic used. The cloning and sequencing of the reporter plasmid pGL3basic-5xGAL4-TK took place in analogy to the description in Sambrook J. et. al. (Molecular cloning, Cold Spring Harbor Laboratory Press, 1989).
The PPARgamma expression plasmid pcDNA3-GAL4-humanPPARgammaLBD was prepared by first cloning the cDNA coding for amino acids 1-147 of the yeast transcription factor GAL4 (Genbank Accession #P04386) into the plasmid pcDNA3 (from Invitrogen) 3′-downstream of the cytomegalovirus promoter. Subsequently, the cDNA of the ligand-binding domain (LBD) of the human PPARgamma receptor (amino acids […]; Accession #g1480099) 3′-downstream of the GAL4 DNA binding domain was cloned. Cloning and sequencing of the PPARgamma expression plasmid pcDNA3-GAL4-humanPPARgammaLBD again took place in analogy to the description in Sambrook J. et. al. (Molecular cloning, Cold Spring Harbor Laboratory Press, 1989). Besides the luciferase reporter plasmid pGL3basic-5xGAL4-TK and the PPARgamma expression plasmid pcDNA3-GAL4-humanPPARgammaLBD, also used for the cellular PPARgamma assay are the reference plasmid pRL-CMV (from Promega) and the plasmid pBluescript SK(+) from Stratagene. All four plasmids were prepared using a plasmid preparation kit from Qiagen, which ensured a plasmid quality with a minimal endotoxin content, before transfection into HEK cells.
The activity of PPARgamma agonists is determined in a 4-day assay which is described below. Before the transfection, HEK cells were cultivated in DMEM medium (#41965-039, Invitrogen) which was mixed with the following additions: 10% FCS (#16000-044, Invitrogen),1% penicillin-streptomycin solution (#15140-122, Invitrogen) and 2 mM L-glutamine (#25030-024, Invitrogen).
Solution A, a transfection mixture which contains all four plasmids previously described in addition to DMEM medium, was prepared. […]

human PPARalpha = molecular target: T2, human PPARalpha (Homo sapiens, UniProt Q07869); experiment: Cellular PPARalpha assay (stably transfected HEK luciferase reporter cell line); assay type: cell-based; conditions: GR-GAL4-humanPPARalpha-LBD, 24 h
T2 construct: human PPARalpha receptor (amino acids S167-Y468); expressed in transfected cells; host or cells: HEK cells (stably transfected, pcDNA3, CMV promoter)
T2 sequence (Q07869 167-468): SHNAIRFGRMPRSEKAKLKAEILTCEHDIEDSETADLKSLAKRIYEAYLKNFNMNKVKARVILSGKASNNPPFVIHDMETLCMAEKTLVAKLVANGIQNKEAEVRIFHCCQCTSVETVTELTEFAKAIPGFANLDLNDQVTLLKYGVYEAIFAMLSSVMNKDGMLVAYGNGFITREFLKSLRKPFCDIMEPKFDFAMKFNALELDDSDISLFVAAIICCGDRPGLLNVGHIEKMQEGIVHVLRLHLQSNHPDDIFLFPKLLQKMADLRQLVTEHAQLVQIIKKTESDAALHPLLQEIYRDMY
Protocol: 1) Determination of EC50 Values of PPAR Agonists in the Cellular PPARalpha Assay
The activity of the novel compounds of the present invention was tested as follows The potency of substances which bind to human PPARalpha and activate it in an agonistic manner is analyzed using a stably transfected HEK cell line (HEK=human embryo kidney) which is referred to here as PPARalpha reporter cell line. It contained two genetic elements, a luciferase reporter element (pdeltaM-GAL4-Luc-Zeo) and a PPARalpha fusion protein (GR-GAL4-humanPPARalpha-LBD) which mediates expression of the luciferase reporter element depending on a PPARalpha ligand. The stably and constitutively expressed fusion protein GR-GAL4-humanPPARalpha-LBD binds in the cell nucleus of the PPARalpha reporter cell line via the GAL4 protein portion to the GAL4 DNA binding motifs 5′-upstream of the luciferase reporter element which was stably integrated in the genome of the cell line. There is only little expression of the luciferase reporter gene without addition of a PPARalpha ligand if fatty acid-depleted fetal calf serum (cs-FCS) is used in the assay. PPARalpha ligands bind and activate the PPARalpha fusion protein and thereby bring about expression of the luciferase reporter gene. The luciferase which is formed can be detected by means of chemiluminescence via an appropriate substrate.
The PPARalpha reporter cell line was prepared in two steps. Firstly, the luciferase reporter element was constructed and stably transfected into HEK cells. For this purpose, five binding sites of the yeast transcription factor GAL4 (in each case 5′-CGGAGTACTGTCCTCCGAG-3′) were cloned in 5′-upstream of a 68 bp-long minimal MMTV promoter (Genbank Accession #V01175). The minimal MMTV promoter section contains a CCAAT box and a TATA element in order to enable efficient transcription by RNA polymerase II. The cloning and sequencing of the GAL4-MMTV construct took place in analogy to the description of Sambrook J. et. al. (Molecular Cloning, Cold Spring Harbor Laboratory Press, 1989). Which is hereby incorporated by reference herein.
The complete Photinus pyralis luciferase gene (Genbank Accession #M15077) was cloned in 3′-downstream of the GAL4-MMTV element. After sequencing, the luciferase reporter element consisting of five GAL4 binding sites, MMTV promoter and luciferase gene was subcloned into a plasmid which confers zeozin resistance in order to obtain the plasmid pdeltaM-GAL4-Luc-Zeo. This vector was transfected into HEK cells in accordance with the statements in Ausubel, F.M. et al. (Current Protocols in Molecular Biology, Vol. 1-3, John Wiley & Sons, Inc., 1995).
In a second step, the PPARalpha fusion protein (GR-GAL4-humanPPARalpha-LBD) was introduced into the stable cell clone described. For this purpose, initially the cDNA coding for the N-terminal 76 amino acids of the glucocorticoid receptor (Genbank Accession # P04150) was linked to the cDNA section coding for amino acids 1-147 of the yeast transcription factor GAL4 (Genbank Accession #P04386). The cDNA of the ligand-binding domain of the human PPARalpha receptor (amino acids S167-Y468; Genbank Accession #S74349) was cloned in at the 3′ end of this GR-GAL4 construct. The fusion construct prepared in this way (GR-GAL4-humanPPARalpha-LBD) was subcloned into the plasmid pcDNA3 (from Invitrogen) in order to enable constitutive expression therein by the cytomegalovirus promoter. This plasmid was linearized with a restriction endonuclease and stably transfected into the previously described cell clone containing the luciferase reporter element. The finished PPARalpha reporter cell line which contains a luciferase reporter element and constitutively expresses the PPARalpha fusion protein (GR-GAL4-humanPPARalpha-LBD) was isolated by selection with zeozin (0.5 mg/ml) and G418 (0.5 mg/ml).
The activity of PPARalpha agonists was determined in a 3-day assay which is described below: […]

| Molecule | EC50 (human PPARgamma) [nM] | EC50 (human PPARalpha) [nM] |
| --- | --- | --- |
| 2-{(1R,3S)-3-[5-Isopropyl-2-(3-methoxyphenyl)oxazol-4-ylmethoxymethyl]cyclohexylmethoxy}-2-methylpropionic acid [Example 15] | 150 | 71.7 |
| CC(C)c1oc(-c2cccc(C(F)(F)F)c2)nc1COC[C@@H]1CCC[C@H](COC(C)(C)C(=O)O)C1 [Example 7, 2-{(1S,3R)-3-[5-Isopropyl-2-(3-trifluoromethylphenyl)oxazol-4-ylmethoxymethyl]cyclohexylmethoxyl}-2-methylpropionic acid] | 800 | 46.2 |
| CC(C)c1oc(-c2ccc3ccccc3c2)nc1COC[C@@H]1CCC[C@H](COC(C)(C)C(=O)O)C1 [Example 11, 2-{(1S,3R)-3-[5-Isopropyl-2-(naphtha-2-yl)oxazol-4-ylmethoxymethyl]cyclohexylmethoxy}-2-methylpropionic acid] | 1790 | 70.9 |
| COc1cccc(-c2nc(COC[C@@H]3CCC[C@H](COC(C)(C)C(=O)O)C3)c(C(C)C)o2)c1 [Example 10, 2-{1(1S,3R)-3-[5-Isopropyl-2-(3-methoxyphenyl)oxazol-4-ylmethoxymethyl]cyclohexylmethoxy}-2-methylpropionic acid] | 672 | 381 |
| Cc1ccc(-c2nc(COC[C@H]3CCC[C@@H](COC(C)(C)C(=O)O)C3)c(C(C)C)o2)cc1C [Example 12, 2-{(1R,3S)-3-[2-(3,4-Dimethylphenyl)-5-isopropyloxazol-4-ylmethoxymethyl]cyclohexylmethoxy}-2-methylpropionic acid] | 133 | 5.5 |
| CC(C)c1oc(-c2ccc(C(C)(C)C)cc2)nc1COC[C@@H]1CCC[C@H](COC(C)(C)C(=O)O)C1 [Example 9, 2-{(1S,3R)-3-[2-(4-tert-butylphenyl)-5-isopropyloxazol-4-ylmethoxymethyl]cyclohexylmethoxy}-2-methylpropionic acid] | 492 | 48.8 |
| CCc1oc(-c2ccc(C(C)(C)C)cc2)nc1COC[C@@H]1CCC[C@H](COC(C)(C)C(=O)O)C1 [Example 5, 2-{1(1S,3R)-3-[2-(4-tert-butylphenyl)-5-ethyloxazol-4-ylmethoxymethyl]cyclohexylmethoxy}-2-methylpropionic acid] | 266 | 14.3 |
| CCc1oc(-c2ccc(C)c(C)c2)nc1COC[C@H]1CCC[C@@H](COC(C)(C)C(=O)O)C1 [Example 21, 2-{(1R,3S)-3-[2-(3,4-Dimethylphenyl)-5-ethyloxazol-4-ylmethoxymethyl]cyclohexylmethoxyl}-2-methylpropionic acid] | 184 | 1.6 |

More lines, in order of falling EC50 (human PPARgamma), values ahead:

| EC50 (human PPARgamma) [nM] | EC50 (human PPARalpha) [nM] | Molecule |
| --- | --- | --- |
| 2760 | 152 | CCc1oc(-c2ccccc2C(F)(F)F)nc1COC[C@@H]1CCC[C@H](COC(C)(C)C(=O)O)C1 [Example 3, 2-{(1S,3R)-3-[5-Ethyl-2-(2-trifluoromethylphenyl)-oxazol-4-ylmethoxymethyl]cyclohexylmethoxyl}-2-methylpropionic acid] |
| 1880 | 19.3 | CC(C)c1oc(-c2ccc(C(F)(F)F)cc2)nc1COC[C@@H]1CCC[C@H](COC(C)(C)C(=O)O)C1 [Example 6, 2-{(1S,3R)-3-[5-Isopropyl-2-(4-trifluoromethylphenyl)oxazol-4-ylmethoxymethyl]cyclohexylmethoxy}-2-methylpropionic acid] |
| 324 | 1.9 | CCc1oc(-c2ccc(C)c(C)c2)nc1COC[C@@H]1CCC[C@H](COC(C)(C)C(=O)O)C1 [Example 4, 2-{(1S,3R)-3-[2-(3,4-Dimethylphenyl)-5-ethyloxazol-4-ylmethoxymethyl]cyclohexylmethoxy}-2-methylpropionic acid] |
| 127 | 18.7 | CC(C)c1oc(-c2ccc3ccccc3c2)nc1COC[C@H]1CCC[C@@H](COC(C)(C)C(=O)O)C1 [Example 14, 2-{(1R,3S)-3-[5-Isopropyl-2-(naphth-2-yl)oxazol-4-ylmethoxymethyl]cyclohexylmethoxy}-2-methylpropionic acid] |
